Read-outs that look alike come from different tables or passages of the source.
Tests used:
[1] = test system: Ca9-22 squamous cell carcinoma cells; assay: MTT cytotoxicity against Ca9-22 squamous cell carcinoma; type: cell-based, human; conditions: for CC50: 48 h, MTT, read-out: Ca9-22 CC50; for Ca9-22 SI: average CC50 HGF/HPLF/HPC divided by CC50 Ca9-22
Procedure: (§1) The method for evaluating 2a–f and 3a–e against human oral squamous cell carcinoma (OSCC) cell lines (Ca9-22, HSC-2, HSC-3, HSC-4) and human non-malignant oral cells [human gingival fibroblast (HGF), human periodontal ligament fibroblast (HPLF), and human pulp cell (HPC)] have been reported previously, except the length of time of this bioassay was extended from 24 h to 48 h. In brief, different quantities of the compounds were incubated with the cells in Dulbecco’s modified eagle medium (DMEM), which was supplemented with 10% FBS and antibiotics. The cell viability was determined by the 3-(4,5-dimethylthiazol-2-yl)-2,5-diphenyl-2H-tetrazolium bromide (MTT) method as summarized previously (Figure 4).

[2] = test system: HSC-2 squamous cell carcinoma cells; assay: MTT cytotoxicity against HSC-2 squamous cell carcinoma; type: cell-based, human; conditions: for CC50: 48 h, MTT, read-out: HSC-2 CC50; for HSC-2 SI: average CC50 HGF/HPLF/HPC divided by CC50 HSC-2
Procedure: as §1

[3] = test system: HSC-3 squamous cell carcinoma cells; assay: MTT cytotoxicity against HSC-3 squamous cell carcinoma; type: cell-based, human; conditions: for CC50: 48 h, MTT, read-out: HSC-3 CC50; for HSC-3 SI: average CC50 HGF/HPLF/HPC divided by CC50 HSC-3
Procedure: as §1

[4] = test system: HSC-4 squamous cell carcinoma cells; assay: MTT cytotoxicity against HSC-4 squamous cell carcinoma; type: cell-based, human; conditions: for CC50: 48 h, MTT, read-out: HSC-4 CC50; for HSC-4 SI: average CC50 HGF/HPLF/HPC divided by CC50 HSC-4
Procedure: as §1

[5] = test system: Ca9-22, HSC-2, HSC-3, and HSC-4 squamous cell carcinoma cell lines; assay: Average over Ca9-22, HSC-2, HSC-3 and HSC-4 OSCC cell lines; type: cell-based, human; conditions: for Average SI: average of SI for four OSCC cell lines; for CC50: average of four OSCC cell lines, read-out: Average CC50
Procedure: as §1

HGF non-malignant cells = assay: MTT cytotoxicity against human gingival fibroblast (HGF); type: cell-based; conditions: non-malignant oral cells, 48 h
Procedure: as §1

HPLF non-malignant cells = assay: MTT cytotoxicity against human periodontal ligament fibroblast (HPLF); type: cell-based; conditions: non-malignant oral cells, 48 h
Procedure: as §1

HPC non-malignant cells = assay: MTT cytotoxicity against human pulp cell (HPC); type: cell-based; conditions: non-malignant oral cells, 48 h
Procedure: as §1

[6] = test system: HGF, HPLF, and HPC non-malignant cells; assay: Average over HGF, HPLF and HPC non-malignant oral cells; type: cell-based, human; conditions: average of HGF
Procedure: as §1

[7] = test system: CRL1790 non-malignant colon cells; assay: Cytotoxicity against CRL1790 non-malignant colon cells; type: cell-based; conditions: Homo sapiens, 48 h
Procedure: (§2) The culture medium was supplemented with 10% heat-inactivated fetal bovine serum (FBS) and 1% penicillin–streptomycin antibiotics. The time of the bioassays was 48 h. The determinations were undertaken in triplicate on three different occasions.

[8] = test system: HCT116 and HT29 colon cancer cells; assay: Average over HCT116 and HT29 colon cancer cells; type: cell-based, human
Procedure: as §2

[9] = MTT cytotoxicity against human gingival fibroblast (HGF); type: cell-based; conditions: human, human gingival fibroblasts (HGF), non-malignant oral cells
Procedure: as §1

[10] = MTT cytotoxicity against human periodontal ligament fibroblast (HPLF); type: cell-based; conditions: human, human periodontal ligament fibroblasts (HPLF), non-malignant oral cells
Procedure: as §1

[11] = MTT cytotoxicity against human pulp cell (HPC); type: cell-based; conditions: human, human pulp cells (HPC), non-malignant oral cells
Procedure: as §1

[12] = Average over HGF, HPLF and HPC non-malignant oral cells; type: cell-based, human; conditions: human, HPLF and HPC non-malignant oral cells (average), average of HGF
Procedure: as §1

CEM cells [13] = assay: Differential DNA staining (DNS) cytotoxicity assay, CEM cells; type: cell-based; conditions: Homo sapiens, CCRF-CEM
Procedure: (§3) The method used for generating the data of human acute lymphocytic leukemia (CEM) and human acute promyelocytic leukemia (HL-60) cells in Table 4 has been described previously. In brief, the cells were cultured in media supplemented with 10% FBS and antibiotics. […] The CC50 values of the compounds listed in Table 4 were obtained by linear interpolation equations [28, 29].

HL-60 cells = assay: Differential DNA staining (DNS) cytotoxicity assay, HL-60 cells; type: cell-based; conditions: Homo sapiens
Procedure: as §3

Ca9-22 cells [14] = assay: Cell cycle analysis in Ca9-22 cells (propidium iodide); type: cell-based, human; conditions: dose-response 0.625-10 μM, 24 h
Procedure: Apoptosis induction in Ca9-22 cells was evaluated by cell cycle analysis and Western blot analysis as described previously [25, 28] […] Briefly, for the cell cycle analysis, cells were treated for 24 h with the test samples. Cells were then fixed, digested with RNase A, stained with propidium iodide, filtered through Falcon® cell trainers (Corning Inc., Corning, NY, USA), and then subjected to cell sorting.

CEM cells [15] = assay: Annexin V-FITC apoptosis assay in CEM cells; type: cell-based, human; conditions: CC50 and twice the CC50 concentrations, 24 h
Procedure: In order to discover if representative compounds induce apoptosis, the annexin V-FITC assay was used. In brief, CEM cells were treated with various compounds for 24 h. The cells were collected and stained with propidium iodide and annexin V-FITC.

CEM cells [16] = assay: ROS production in CEM cells (carboxy-H2DCFDA, flow cytometry); type: cell-based, human; conditions: CC50 and twice the CC50 concentrations
Procedure: (§4) Apoptosis induction in Ca9-22 cells was evaluated by cell cycle analysis and Western blot analysis as described previously (Figure 5). Briefly, for the cell cycle analysis, cells were treated for 24 h with the test samples. Cells were then fixed, digested with RNase A, stained with propidium iodide, filtered through Falcon® cell trainers (Corning Inc., Corning, NY, USA), and then subjected to cell sorting. For the Western blot, cell lysates (equivalent to 5 µg protein) were applied to SDS-polyacrylamide gel electrophoresis. A literature method was used to determine whether representative compounds led to increases in the production of ROS [29]. In brief, CEM cells were treated with the compounds overnight, then with 6-carboxy-2′,7′-dichlorodihydrofluorescein diacetate (carboxy-H2DCFDA) and the samples were processed using flow cytometry.

Ca9-22 cells [17] = assay: Western blot for caspase 3 activation in Ca9-22 cells; type: cell-based, human; conditions: 3 μM, 24 h
Procedure: as §4

CEM cells [18] = assay: Mitochondrial membrane potential in CEM cells (JC-1, flow cytometry); type: cell-based, human; conditions: 7 h
Procedure: The effect on the mitochondrial membrane potential in CEM cells was undertaken using a published method. In brief, the cells were incubated with different compounds for 7 h. The cells were then stained with the JC-1 dye, and the samples were examined by flow cytometry. The results are portrayed in Figure 6C.

With [NH2][Pt]([NH2])([Cl])[Cl] [CDDP, cisplatin, reference compound] the CC50 [1] was 212 µM, the “Ca9-22 SI” value [1] was over 4.72 and the CC50 [2] was 204 µM. The “HSC-2 SI” value [2] was over 4.90, the CC50 [3] was 46.9 µM and the “HSC-3 SI” value [3] was over 21.3. For the same compound, the CC50 [4] was 60.4 µM, the “HSC-4 SI” value [4] was over 16.6 and the “Average SI” value [5] was over 11.1. For the same compound, the CC50 [5] was 131 µM, the CC50 (HGF non-malignant cells) was over 1000 µM and the CC50 (HPLF non-malignant cells) was over 1000 µM. It also gave a CC50 (HPC non-malignant cells) of over 1000 µM and a CC50 [6] of over 1000 µM.

For CCN(CC)Cc1cc(C=C2CNCC(=Cc3ccc(OC)c(OC)c3)C2=O)ccc1O.Cl.Cl [Compound 2b, 3-(3-Diethylaminomethyl-4-hydroxybenzylidene)-5-(3,4-dimethoxybenzylidene)-4-piperidone dihydrochloride], the IC50 [7] was 15.2 ± 0.15 µM, the IC50 ([8]; Homo sapiens, average of HCT116 and HT29, unit printed only for the single cell-line columns) was 0.25 µM and the “Average SI” value ([8]; average of SI for HCT116 and HT29) was 64.2. For the same compound, the “PSE (potency-selectivity expression)” value ([8]; reciprocal of average IC50 x average SI x 100, colon cells) was 25,680, the CC50 ([1]; Homo sapiens, Ca9-22) was 0.65 µM and the “Ca9-22 SI” value [1] was 10.8. The CC50 ([2]; Homo sapiens, HSC-2) was 1.01 µM, the “HSC-2 SI” value [2] was 6.96 and the CC50 ([3]; Homo sapiens, HSC-3) was 0.76 µM. The “HSC-3 SI” value [3] was 9.25, the CC50 ([4]; Homo sapiens, HSC-4) was 1.16 µM and the “HSC-4 SI” value [4] was 6.06. The CC50 ([5]; Homo sapiens) was under 1 µM, the “Average SI” value [5] was 8.27 and the CC50 [5] was 0.9 µM. The CC50 at 48 h [9] was 13.3 µM, the CC50 at 48 h [10] was 5.5 µM and the CC50 at 48 h [11] was 2.3 µM. The CC50 at 48 h [12] was 7.03 µM, the CC50 (CEM cells [13]; 24 h, read-out: CC50 CEM Cells 24 h) was 0.63 ± 0.08 µM and the CC50 (CEM cells [13]; 48 h, read-out: CC50 CEM Cells 48 h) was 0.82 ± 0.03 µM. For the same compound, the CC50 (HL-60 cells; HL-60, 24 h, read-out: CC50 HL-60 Cells 24 h) was 7.75 ± 0.26 µM, the CC50 (HL-60 cells; HL-60, 48 h, read-out: CC50 HL-60 Cells 48 h) was 4.82 ± 0.91 µM and the “optimal concentration for the subG1 population” value (Ca9-22 cells [14]) was 2.5 µM. The apoptotic cells (CEM cells [15]) was “approximately 30%”, the ROS generation (CEM cells [16]) was “generate ROS” and the “caspase 3 activation (cleavage of PARP and procaspase)” value (Ca9-22 cells [17]) was “induced”. The “depolarization of the mitochondrial membrane potential” value (CEM cells [18]) was “induced”.

— paper PMC9572513, “Novel Unsymmetric 3,5-Bis(benzylidene)-4-piperidones That Display Tumor-Selective Toxicity” (Molecules, 2022)
